The values that follow come from BindingDB's records for doi:10.7270/Q2TX3CTT (Broad Institute, 2010).

As a reminder, the EC50 is the concentration at which the effect is half-maximal. Higher therefore signals lower potency in that assay.

SMILES strings stand for the structures. A value given as a limit tells only on which side of the number the result lay.

For the experiment, the target named is Glycogen synthase kinase-3 beta (Homo sapiens, UniProt P49841). The experiment can be described thus: GSK3beta kinase inhibitor potency, dose response, biochemical, luminescence, cell-free homogeneous, retest (AID 434954).
Glycogen synthase kinase-3 beta, sequence (P49841 whole entry): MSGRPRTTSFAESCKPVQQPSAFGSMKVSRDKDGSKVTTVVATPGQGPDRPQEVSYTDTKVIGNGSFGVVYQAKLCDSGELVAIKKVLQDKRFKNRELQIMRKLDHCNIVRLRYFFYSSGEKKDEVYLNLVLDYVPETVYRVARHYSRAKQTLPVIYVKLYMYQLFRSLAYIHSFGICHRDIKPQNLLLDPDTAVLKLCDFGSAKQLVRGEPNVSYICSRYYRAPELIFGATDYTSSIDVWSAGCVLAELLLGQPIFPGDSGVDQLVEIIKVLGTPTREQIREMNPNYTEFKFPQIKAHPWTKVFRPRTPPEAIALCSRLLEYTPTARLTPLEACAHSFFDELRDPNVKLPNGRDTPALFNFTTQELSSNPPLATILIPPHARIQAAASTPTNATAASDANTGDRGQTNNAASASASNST
Turning to `Cc1cc(C)cc(NC(=O)NCC2CCN(Cc3cc(C)ccc3C)CC2)c1` [1-(3,5-dimethylphenyl)-3-[[1-[(2,5-dimethylphenyl)methyl]-4-piperidinyl]methyl]urea], the half-maximal effective concentration (EC50) was more than 300 µM. The result for `CC(C)CNc1nc(N)c([N+](=O)[O-])c(NCC2CCCO2)n1` (stereo unspecified) reads 6.1 µM. For `COc1ccc(-c2nnc(NC(=O)C3=COCCO3)o2)cc1` [MLS000722006] the value was more than 300 µM; for `CNC(=O)c1ccccc1NC(=O)c1cccc(S(=O)(=O)N2CCC(C)CC2)c1` [N-methyl-2-({3-[(4-methylpiperidin-1-yl)sulfonyl]benzoyl}amino)benzamide], more than 300 µM. The compound `O=C(NCc1ccco1)C(=O)c1cn(CC(=O)N2CCCC2)c2ccccc12` [N-(furan-2-ylmethyl)-2-oxidanylidene-2-[1-(2-oxidanylidene-2-pyrrolidin-1-yl-ethyl)indol-3-yl]ethanamide] came in with a 50% effective concentration (EC50) of more than 300 µM. Turning to `CC1Cc2cc(-c3csc(NC(=O)Cc4ccccc4)n3)ccc2N1S(C)(=O)=O` (stereo unspecified) [N-[4-(1-Methanesulfonyl-2-methyl-2,3-dihydro-1H-indol-5-yl)-thiazol-2-yl]-2-phenyl-acetamide], the concentration giving a half-maximal response (EC50) was more than 300 µM.

In turn, `O=C(CSc1ccc2nnc(-c3ccc(F)cc3)n2n1)N1CCOCC1` [2-[[3-(4-fluorophenyl)-[1,2,4]triazolo[4,3-b]pyridazin-6-yl]sulfanyl]-1-morpholin-4-yl-ethanone] registered an EC50 of more than 300 µM. Take `Cc1ccc(-c2nn(-c3ccccc3)cc2C=Nn2c(-c3cccs3)n[nH]c2=S)cc1` [4-({[3-(4-methylphenyl)-1-phenyl-1H-pyrazol-4-yl]methylene}amino)-5-(2-thienyl)-2,4-dihydro-3H-1,2,4-triazole-3-thione]: the EC50 is more than 300 µM. `Cc1nc[nH]c1C(=O)NN=Cc1c(Cl)cccc1Cl` [MLS001182271]: the EC50 stood at 21.8 µM. In other words, the double-digit micromolar range.

On to `Cc1cc2c(=O)oc(-c3ccc(F)cc3)nc2s1`, for which the EC50 was more than 300 µM.

In the case of `Nc1nc(Nc2cccc(Cl)c2)nc(NCCO)c1[N+](=O)[O-]`, the midpoint of the response, the EC50, lay at 1.73 µM. The result for `COc1ccc(CNC(=O)CN(Cc2ccccc2)C(=O)CCC(=O)Nc2nccs2)cc1` [N'-[2-[(4-methoxyphenyl)methylamino]-2-oxoethyl]-N'-(phenylmethyl)-N-(2-thiazolyl)butanediamide] reads 11.1 µM; that for `CCOC(=O)c1c(S(=O)(=O)NCC(=O)Nc2ccccc2)c(C)n(C)c1C` [MLS001028712], more than 300 µM.

In the case of `CN(c1ccccc1C(=O)Nc1cccc(C(F)(F)F)c1)S(C)(=O)=O` [MLS000096933], the EC50 is more than 300 µM.

In turn, `O=C(O)/C=C/C(=O)NCC1CCC(CNC(=O)/C=C/C(=O)O)CC1` (stereo unspecified) [(E)-4-[[4-[[[(E)-3-carboxy-1-oxoprop-2-enyl]amino]methyl]cyclohexyl]methylamino]-4-oxo-2-butenoic acid] showed an EC50 of more than 300 µM. The result for `COCCn1c(SCC(=O)NC(=O)NC(C)C)nc2ccccc21` [2-[1-(2-methoxyethyl)benzimidazol-2-yl]sulfanyl-N-(propan-2-ylcarbamoyl)ethanamide] reads more than 300 µM; that for `NS(=O)(=O)c1cc(C(=O)NNC2=c3ccccc3=NC2=O)ccc1Cl` [2-chloro-5-[[(2-oxoindol-3-yl)amino]carbamoyl]benzenesulfonamide], 43.9 µM; that for `COc1cccc(C(=O)NCCCNC(=O)c2cccc(OC)c2)c1` [3-methoxy-N-[3-[[(3-methoxyphenyl)-oxomethyl]amino]propyl]benzamide], more than 300 µM.

For the compound `Cc1ccc2cc(NC(=O)c3cccc(F)c3)ccc2n1` [3-fluoro-N-(2-methyl-6-quinolinyl)benzamide], the EC50 is more than 300 µM. `CCCN1CCN(CCCNC(=O)Cn2nc(C)n3c(cc4cc(OC)ccc43)c2=O)CC1` [MLS001110985]: the 50% effective concentration (EC50) is more than 300 µM. As for `CS(=O)(=O)N(Cc1ccccc1)c1ccc(C(=O)Nc2ccccc2Sc2ccccc2)cc1` [4-[methylsulfonyl-(phenylmethyl)amino]-N-(2-phenylsulfanylphenyl)benzamide], the EC50 is more than 300 µM.

The compound `COc1cc(NC(=S)Nc2ccccn2)c(OC)cc1Cl` [1-(4-chloranyl-2,5-dimethoxy-phenyl)-3-pyridin-2-yl-thiourea] yielded an EC50 of 12.3 µM. The result for `COc1cc(C=NNC(=O)c2sc(N)c(C#N)c2C)ccc1O` [MLS000540774] reads 0.436 µM; that for `O=C(O)c1ccccc1NCc1cccnc1` [SMR000473304], more than 300 µM; that for `CN(C)c1ccc(C(=O)NN2C(=O)c3ccccc3C2=O)cc1` [4-(dimethylamino)-N-(1,3-dioxo-2-isoindolyl)benzamide], more than 300 µM. For `COC(=O)C1=C(C)N(CCCC(=O)O)C(=O)NC1c1ccc([N+](=O)[O-])cc1` (stereo unspecified) [MLS000562939] the value was more than 300 µM; for `c1ccc(CSc2ccc3nnc(-c4ccccn4)n3n2)cc1`, more than 300 µM; for `O=C(Nc1ccncc1)c1ccccc1-c1ccccc1` [MLS000672259], 14.5 µM.

The compound `COc1cc(C(=O)NC(=S)N(CCc2ccccc2)CCc2ccccc2)cc(OC)c1OC` [N-[bis(2-phenylethyl)carbamothioyl]-3,4,5-trimethoxybenzamide] registered an EC50 of more than 300 µM.

`COc1ccc(NC(=O)c2sc(S)nc2N)cc1` [4-Amino-2-thioxo-2,3-dihydro-thiazole-5-carboxylic acid (4-methoxy-phenyl)-amide] yielded a concentration for a half-maximal effect (EC50) of more than 300 µM.

The compound `CC(C)n1cnc2c(Nc3cccc(Cl)c3)nc(NCCCO)nc21` registered an EC50 of more than 300 µM. `COc1ccc(C(=O)c2coc3ccc(O)c(CN4CCCCC4)c23)cc1` [[5-hydroxy-4-(piperidin-1-ylmethyl)-1-benzofuran-3-yl]-(4-methoxyphenyl)methanone] showed an EC50 of more than 300 µM.

As for `Cc1[nH][nH]c(=O)c1N=Nc1ccccc1C#N` [2-[2-(3-methyl-5-oxopyrazol-4-yl)hydrazinyl]benzonitrile], the response was half-maximal at 15.9 µM (EC50). This counts as double-digit micromolar. The result for `Cc1ccc(CNS(=O)(=O)c2c(C)[nH]c(=O)[nH]c2=O)cc1` [MLS001200136] reads more than 300 µM. As to `Cc1c(Cc2ccccc2)c(=O)oc2cc(O)cc(O)c12` [SMR000300454], the half-maximal effective concentration (EC50) was found to be 15.8 µM. In the case of `NC(=O)CSc1nnc(COc2ccc3ccccc3c2)o1` [MLS001203608], the EC50 was more than 300 µM. The compound `COCCn1c(SCC(=O)Nc2ccc(S(=O)(=O)N(C)C)cc2)nc2ccccc21` [MLS000567111] came in with a concentration giving a half-maximal response (EC50) of more than 300 µM. Consider `Nc1nonc1-n1nnc(C(=O)NN=Cc2ccccc2O)c1CN1CCCC1` [1-(4-amino-1,2,5-oxadiazol-3-yl)-N'-[(E)-(6-oxo-1-cyclohexa-2,4-dienylidene)methyl]-5-(1-pyrrolidinylmethyl)-4-triazolecarbohydrazide], for which the concentration for a half-maximal effect (EC50) came to 24.6 µM. Compound `Nc1nc(Nc2cccc(F)c2)nc(N2CCOCC2)c1[N+](=O)[O-]` [2-N-(3-fluorophenyl)-6-morpholin-4-yl-5-nitropyrimidine-2,4-diamine] gave a 50% effective concentration (EC50) of more than 300 µM. `COc1cccc(C(=O)CC(C#N)c2ccc(F)cc2)c1` (stereo unspecified) [MLS001165246] registered an EC50 of more than 300 µM. In turn, `COc1ccccc1-c1nc(C(=O)NCC2CCCO2)cc2c1[nH]c1ccccc12` (stereo unspecified) [1-(2-methoxyphenyl)-N-(oxolan-2-ylmethyl)-9H-pyrido[3,4-b]indole-3-carboxamide] yielded a concentration for a half-maximal effect (EC50) of more than 300 µM. In turn, `Cc1ccnc(NC(=O)Cc2ccc([N+](=O)[O-])cc2)c1` [N-(4-methylpyridin-2-yl)-2-(4-nitrophenyl)ethanamide] yielded an EC50 of 21.4 µM. In other words, the double-digit micromolar range.

Turning to `COc1ccccc1NC(=S)NC1CCCCCCCCCCC1` [SMR000460399], the EC50 was more than 300 µM. For `O=C(N1CCN(c2ccccc2F)CC1)C12CC3CC(CC(C3)C1)C2` [SMR000071700] the value was more than 300 µM; for `O=C(COc1ccc(Cl)cc1)Nc1ncc([N+](=O)[O-])s1`, 26.3 µM. For `O=C(NCCc1nnc2ccc(NCC3CCCO3)nn12)c1ccccc1` (stereo unspecified) [N-(2-{6-[(tetrahydrofuran-2-ylmethyl)amino][1,2,4]triazolo[4,3-b]pyridazin-3-yl}ethyl)benzamide] the value was more than 300 µM; for `Nc1nc(NCCOCCO)nc(NCc2ccccc2)c1[N+](=O)[O-]` [MLS001213400], 21.7 µM; for `CC(C)CCNc1nc(N)c([N+](=O)[O-])c(NCCO)n1` [2-[[6-amino-2-(3-methylbutylamino)-5-nitropyrimidin-4-yl]amino]ethanol], 6.82 µM.

`CC(C)=CCc1c(O)c(CC=C(C)C)c2c(c1O)C(=O)CC(c1ccc(O)cc1)O2` (stereo unspecified) [2-(4-hydroxyphenyl)-6,8-bis(3-methylbut-2-enyl)-5,7-bis(oxidanyl)-2,3-dihydrochromen-4-one] showed a concentration for a half-maximal effect (EC50) of more than 300 µM. For `CC1(C)CC(=O)C(C2(O)C(=O)Nc3ccccc32)CO1` (stereo unspecified) [MLS000689086] the value was more than 300 µM.

The compound `Nc1nnnn1/N=C/c1ccc(N2CCCCC2)c([N+](=O)[O-])c1` [SMR000174985] returned an EC50 of more than 300 µM.

`CCOc1ccc(OCC)c(NC(=O)CSc2nnc(C3CC3)n2CC)c1` [MLS001223718] had an EC50 of more than 300 µM.

As to `Cc1ccc(-c2nn(-c3ccccc3)cc2CO)cc1`, the EC50 is more than 300 µM. `O=C(O)COCC(=O)N1CCN(C(c2ccccc2)c2ccccc2)CC1` [2-[2-(4-benzhydrylpiperazino)-2-oxoethoxy]acetic acid]: the EC50 was more than 300 µM. The compound `CC(C)(C)NC(=O)NC(=O)CSc1nncs1` [N-[(tert-butylamino)-oxomethyl]-2-(1,3,4-thiadiazol-2-ylthio)acetamide] gave an EC50 of more than 300 µM. `NC(=O)CN(c1ccc([N+](=O)[O-])cc1)S(=O)(=O)c1ccccc1` [2-[N-(benzenesulfonyl)-4-nitroanilino]acetamide]: the EC50 was more than 300 µM. `COc1ccc2cc(C(N)=O)c(=NNC(=O)c3ccco3)oc2c1` [SMR000236446] displayed an EC50 of more than 300 µM. In the case of `CCOC(=O)c1ccc(NC(=O)Nc2ccccn2)cc1` [MLS000679333], the EC50 is more than 300 µM. With `CCCCc1cc(=O)oc2cc(C)cc(OC(C)C(=O)O)c12` (stereo unspecified) [SMR000043773], the EC50 was more than 300 µM. The compound `Cn1c(=S)n(CCC(=O)O)c2ccccc21` [SMR000273673] registered an EC50 of more than 300 µM.

For `Cc1ccc2c(c1)N(C(=O)CCC(=O)NCc1ccccc1)CC(C)O2` (stereo unspecified), the EC50 was more than 300 µM.
